# Data as given in patent US20060229265A1, “Nicotinamide riboside and analogues thereof” (priority 2005, published 2006).
# How the values were obtained:
# [1] = system: retinal ganglion cells (RGCs); test: Neuroprotection of retinal ganglion cells in EAE mice with acute optic neuritis (intravitreal treatment); conditions: for RGC numbers (FG-labeled cells in 12 standardized fields per retina): EAE eyes with optic neuritis; for Neuroprotection for RGCs during acute optic neuritis in EAE: dose-dependent manner
# Description: Study outline: The neuroprotective effects of nicotinamide riboside were examined in EAE mice with optic neuritis. […] To induce EAE, mice were immunized several days later with 300 μg PLP emulsified in complete Freund's adjuvant (CFA), and control mice (without EAE) were mock-immunized with phosphate buffered saline (PBS) in CFA. All mice received 200 ng intraperitoneal pertussis toxin (PT) on the day of immunization (day 0) and again on day 2.
# Eyes were treated with nicotinamide riboside by intravitreal (ivt) injections with a volume of 0.8 μl/injection of a stock solution of either 0.1 M or 0.4 M nicotinamide riboside in PBS (Groups 2, 4 and 5). […] Treament with nicotinamide riboside, as well as PBS control injections, were given ivt on days 0, 4, 7 and 11. Mice were scored daily for clinical EAE, and were sacrificed on day 14 by overdose with ketamine and xylazine.
# Retinas were dissected and whole-mounted for fluorescent microscopy. RGC numbers were quantified by counting FG-labeled cells in 12 standardized fields in each retina. Optic nerves were dissected and processed for histology. Cut sections stained by H & E were evaluated for the presence of inflammatory cells to determine acute optic neuritis. RGCs were compared between PBS-treated and nicotinamide riboside-treated eyes with optic neuritis to determine whether nicotinamide riboside prevents loss of neurons.
# Swiss Albino mice = test: 7 day repeat dose tolerance study in mice; format: in vivo; conditions: 1000, 500 or 300 mg/kg in PBS, IP, 7 consecutive days; male mice
# Description: Groups of male Swiss Albino mice (6 mice per dosing group) were dosed with either NMN dissolved in phosphate buffered saline (PBS) at 1000 mg/kg, 500 mg/kg, or 300 mg/kg or vehicle control (PBS) via intraperitoneal injection (IP) for 7 consecutive days. The evaluation criteria used to assess toxicity included daily clinical observations and weight gain.
# [2] = Stability in rat plasma / on extraction with organic solvent (LC/MS); format: in vitro ADME
# Description: Duplicate sets of standard curves of triacetoxy nicotinamide riboside, NMN and nicotinamide riboside in rat plasma were extracted by protein precipitation. Due to sensitivities of compounds to the organic solvent used in extraction, two separate extractions were performed on the standards. The standards were extracted with ACN to obtain triacetoxy nicotinamide riboside and nicotinamide riboside standards, and extracted with MeOH to obtain NMN standards. The standards were analyzed through LC/MS. Due to varying chromatographic properties of the compounds, two separate methods and columns were employed to resolve the compounds. The triacetoxy nicotinamide riboside standards (ACN extraction) were run on an YMC ODS-AQ 2.0×100 mm column, while the NMN standards (MeOH extraction) and nicotinamide riboside standards (ACN extraction) were run on an YMC ODS-AQ 4.5×150 mm column. The resolution procedures were as follows: • 50 uL aliquots of each sample were taken in replicates of four. • Added 200 uL of organic solvent to each sample. • Vortexed samples and centrifuged at 5000 g's for 10 minutes. • Transferred supernatant to new tubes (200 uL), and dried down in Speed-Vac. • Reconstituted samples in 200 uL 95:5 ddH2O:ACN, and vortexed 10 minutes on platform vortexer at setting 10. […] Though the curves may be quantitated separately, they cannot be quantitated together. […]
smiles,measurement,setting,value
NC(=O)c1ccc[n+]([C@@H]2O[C@H](CO)[C@@H](O)[C@H]2O)c1 [nicotinamide riboside],RGC numbers (FG-labeled cells in 12 standardized fields per retina),"[1]; 100 mM nicotinamide riboside stock, 0.8 μl ivt on days 0, 4, 7, 11 (estimated ocular 19 mM), day 14, Group 4, PBS-treated 268±59, control 691±81",505±36 RGCs
same,RGC numbers (FG-labeled cells in 12 standardized fields per retina),"[1]; 400 mM nicotinamide riboside stock, 0.8 μl ivt on days 0, 4, 7, 11 (estimated ocular 76 mM), day 14, Group 5, p<0.01",710±67 RGCs
same,"Incidence of optic neuritis, treated mice vs. controls","[1]; EAE mice, ivt treatment",did not differ
same,Inflammatory cell infiltration (optic nerve),"[1]; EAE mice, ivt treatment",does not prevent
same,"Clinical EAE, treated mice vs. controls","[1]; EAE mice, ivt treatment, scored daily",did not differ
same,Neuroprotection for RGCs during acute optic neuritis in EAE,[1],effective
same,Neuroprotection for RGCs during acute optic neuritis in EAE,[1]; listed as Nicotinamide riboside,neuroprotective
same,Toxicity to RGCs,"[1]; mouse, in vivo",not toxic
same,Difference in RGC numbers between control eyes and non-EAE eyes treated,"[1]; non-EAE eyes, ivt treatment (Group 2) vs. untreated control (Group 1), day 14",no difference
"NC(=O)c1ccc[n+]([C@@H]2O[C@H](COP(=O)([O-])O)[C@@H](O)[C@H]2O)c1 [NMN, nicotinamide mononucleotide]",Clinical signs of toxicity,Swiss Albino mice,None of the animals showed clinical signs of toxicity
same,Weight gain by study termination,Swiss Albino mice,All animals in the study gained weight
"CC(=O)OCC1OC([n+]2cccc(C(N)=O)c2)C(OC(C)=O)C1OC(C)=O (stereo not shown) [Triacetoxy nicotinamide riboside, triacetoxy nicotinamide riboside]",Hydrolysis on extraction from rat plasma,"[2]; extracted with ACN, compared with MeOH",less strongly so
same,Hydrolysis on extraction from rat plasma,[2]; extracted with MeOH,hydrolyzes into nicotinamide riboside
